Target: human DGAT2 (hDGAT2) (Homo sapiens (Human), UniProt Q96PD7)
Assay: DGAT2 enzymatic activity assay (triolein formation, LC/MS/MS)
Type: biochemical
Details: Sf-9 membrane prep expressing hDGAT2; 25 μM diolein, 10 μM oleoyl-CoA; triolein by LC/MS/MS
Procedure: Sf-9 insect cells were maintained in Grace's insect cell culture medium with 10% heated-inactivated fetal bovine serum, 1% Pluronic F-68 and 0.14 μg/ml Kanamycine sulfate in Erlenmeyer flasks at 28° C. in a shaker incubator. After infection with untagged baculovirus expressing human DGAT2 (hDGAT2) at multiplicity of infection (MOI) 0.1 for 48 hours, cells were harvested. Cell pellets were suspended in buffer containing 10 mM Tris-HCl (pH 7.5), 1 mM EDTA (pH 8.0), 250 mM sucrose and Complete Protease Inhibitor Cocktail (Roche Diagnostics Corp., Indianapolis, Ill.), and sonicated on ice. Membrane fractions were isolated by ultracentrifugation (100,000×g pellet), resuspended in the same buffer, and frozen (−80° C.) for later use. The protein concentration was determined with the BCA Protein Assay kit (Pierce Biotechnology Inc., Rockford, Ill.). Expression of protein levels was analyzed by immunoblotting with goat polyclonal DGAT2 antibody C-15 and donkey anti-goat IgG HRP (Santa Cruz Biotechnology, Inc., Santa Cruz, Calif.) followed by detection with ECL reagent (GE Healthcare, Piscataway, N.J.).
LC/MS/MS analyses were performed using Thermal Fisher's LX4-TSQ Vantage system. This system consists of an Agilent binary high-performance liquid chromatography (HPLC) pumps and a TSQ Vantage triple quadrupole MS/MS instrument. For each sample, 2 μL samples from the top organic layer of in-plate liquid-liquid extraction were injected onto a Thermo Betabasic C4 column (2.1 mm×20 mm, 5 μm particle size). The samples were then eluted using the following conditions; mobile phase: methanol/water with 0.1% ammonium format=92/8 (v/v), flow rate: 1 mL/min, temperature: 25 C. Data was acquired in positive mode using a heated electrospray ionization (HESI) interface. The operational parameters for the TSQ Vantage MS/MS instrument were a spray voltage of 3000 V, capillary temperature of 280° C., vaporizer temperature 400° C., shealth gas 60 arbitrary unit, Aux gas 40 arbitrary units, S-lens 113 and collision gas 0.16 Pascals. […] (SRM) chromatograms of triolein (Q1:902.9>Q3:602.3) and internal standard (Q1:902.9>Q3:602.3) were collected for 40 sec. The peak area was integrated by Xcalibur Quan software. The ratio between the triolein generated in the reaction and spiked in internal standard was used to generate percentage inhibition and IC50 values. Compound percentage inhibition was calculated by the following formula: Inhibition %/=1−[(compound response−low control)/(high control−low control)]×100%. Potent compounds were titrated and IC50 were calculated by 4 parameter sigmoidal curve fitting formula.
DGAT2 activity was determined by measuring the amount of enzymatic product triolein (1,2,3-Tri(cis-9-octadecenoyl)glycerol) using the membrane prep mentioned above. The assay was carried out in deep well 384 plates in a final volume of 40 μL at rt. The assay mixture contained the following: assay buffer (100 mM Tris.Cl, pH 7.0, 20 mM MgCl2, 5% ethanol), 25 μM of diolein, 10 μM of oleoyl-CoA and 10 ng/μL of DGAT2 membrane.

human DGAT2 (hDGAT2), sequence (Q96PD7 whole entry): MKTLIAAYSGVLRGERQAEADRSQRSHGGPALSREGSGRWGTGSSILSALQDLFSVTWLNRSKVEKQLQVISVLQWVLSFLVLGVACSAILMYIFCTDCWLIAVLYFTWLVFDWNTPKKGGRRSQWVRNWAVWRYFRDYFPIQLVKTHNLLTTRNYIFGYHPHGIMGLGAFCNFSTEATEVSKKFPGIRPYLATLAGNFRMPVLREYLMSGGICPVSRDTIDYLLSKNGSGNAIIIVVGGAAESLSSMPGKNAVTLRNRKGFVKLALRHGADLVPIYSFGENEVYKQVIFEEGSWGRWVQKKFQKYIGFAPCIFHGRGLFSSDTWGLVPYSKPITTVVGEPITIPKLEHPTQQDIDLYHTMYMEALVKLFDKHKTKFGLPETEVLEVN

SMILES	IC50
O=C(NC1CCS(=O)(=O)C1)c1ccc2c(-c3c(Cl)cccc3Cl)cn(-c3ccc(F)cc3)c2c1 (racemic) [Example 47, 3-(2,6-dichlorophenyl)-N-(1,1-dioxidotetrahydrothiophen-3-yl)-1-(4-fluorophenyl)-1H-indole-6-carboxamide (racemic)]	0.942 µM
O=C(NC1CCS(=O)(=O)C1)c1ccc2c(-c3c(F)cccc3Cl)cn(-c3ccc(F)cc3)c2c1 (racemic) [Example 49, 3-(2-chloro-6-fluorophenyl)-N-(1,1-dioxidotetrahydrothiophen-3-yl)-1-(4-fluorophenyl)-1H-indole-6-carboxamide (racemic)]	0.155 µM
O=C(NC1CCS(=O)(=O)C1)c1ccc2c(-c3cncnc3)cn(-c3ccc(F)cc3)c2c1 (racemic) [Example 50, N-(1,1-dioxidotetrahydrothiophen-3-yl)-1-(4-fluorophenyl)-3-pyrimidin-5-yl-1H-indole-6-carboxamide (racemic)]	0.321 µM
Cn1ccc2cc(-c3cn(-c4ccc(F)cc4)c4cc(C(=O)NC5CCS(=O)(=O)C5)ccc34)ccc21 (racemic) [Example 51, N-(1,1-dioxidotetrahydrothiophen-3-yl)-1-(4-fluorophenyl)-1′-methyl-1H,1′H-3,5′-biindole-6-carboxamide (racemic)]	0.102 µM
O=C(NC1CCS(=O)(=O)C1)c1ccc2c(-c3cccnc3)cn(-c3ccc(F)cc3)c2c1 (racemic) [Example 52, N-(1,1-dioxidotetrahydrothiophen-3-yl)-1-(4-fluorophenyl)-3-pyridin-3-yl-1H-indole-6-carboxamide (racemic)]	0.129 µM
Cc1noc(C)c1-c1cn(-c2ccc(F)cc2)c2cc(C(=O)NC3CCS(=O)(=O)C3)ccc12 (racemic) [Example 53, 3-(3,5-dimethylisoxazol-4-yl)-N-(1,1-dioxidotetrahydrothiophen-3-yl)-1-(4-fluorophenyl)-1H-indole-6-carboxamide (racemic)]	0.502 µM
Cn1cc(-c2cn(-c3ccc(F)cc3)c3cc(C(=O)NC4CCS(=O)(=O)C4)ccc23)cn1 (racemic) [Example 54, N-(1,1-dioxidotetrahydrothiophen-3-yl)-1-(4-fluorophenyl)-3-(1-methyl-1H-pyrazol-4-yl)-1H-indole-6-carboxamide (racemic)]	0.345 µM
Cc1ccc(-c2cn(-c3ccc(F)cc3)c3cc(C(=O)NC4CCS(=O)(=O)C4)ccc23)cc1 (racemic) [Example 55, N-(1,1-dioxidotetrahydrothiophen-3-yl)-1-(4-fluorophenyl)-3-(4-methylphenyl)-1H-indole-6-carboxamide (racemic)]	0.696 µM
O=C(NC1CCS(=O)(=O)C1)c1ccc2c(-c3ccc(-n4cccn4)cc3)cn(-c3ccc(F)cc3)c2c1 (racemic) [Example 56, N-(1,1-dioxidotetrahydrothiophen-3-yl)-1-(4-fluorophenyl)-3-[4-(1H-pyrazol-1-yl)phenyl]-1H-indole-6-carboxamide (racemic)]	0.117 µM
O=C(NC1CCS(=O)(=O)C1)c1ccc2c(-c3ccc(OC(F)F)cc3)cn(-c3ccc(F)cc3)c2c1 (racemic) [Example 57, 3-[4-(difluoromethoxy)phenyl]-N-(1,1-dioxidotetrahydrothiophen-3-yl)-1-(4-fluorophenyl)-1H-indole-6-carboxamide (racemic)]	0.562 µM
O=C(NC1CCS(=O)(=O)C1)c1ccc2c(-c3cccc(O)c3)cn(-c3ccc(F)cc3)c2c1 (racemic) [Example 59, N-(1,1-dioxidotetrahydrothiophen-3-yl)-1-(4-fluorophenyl)-3-(3-hydroxyphenyl)-1H-indole-6-carboxamide (racemic)]	0.492 µM
COC(=O)c1cc(-c2cn(-c3ccc(F)cc3)c3cc(C(=O)NC4CCS(=O)(=O)C4)ccc23)cs1 (racemic) [Example 60, methyl 4-{6-[(1,1-dioxidotetrahydrothiophen-3-yl)carbamoyl]-1-(4-fluorophenyl)-1H-indol-3-yl}thiophene-2-carboxylate (racemic)]	0.175 µM
Cc1cc(C)n(-c2cccc(-c3cn(-c4ccc(F)cc4)c4cc(C(=O)NC5CCS(=O)(=O)C5)ccc34)c2)n1 (racemic) [Example 61, 3-[3-(3,5-dimethyl-1H-pyrazol-1-yl)phenyl]-N-(1,1-dioxidotetrahydrothiophen-3-yl)-1-(4-fluorophenyl)-1H-indole-6-carboxamide (racemic)]	0.929 µM
O=C(NC1CCS(=O)(=O)C1)c1ccc2c(-c3ccccc3Cl)cn(-c3ccc(F)cc3)c2c1 (single isomer, unassigned) [Example 2-A, 3-(2-chlorophenyl)-N-(1,1-dioxidotetrahydrothiophen-3-yl)-1-(4-fluorophenyl)-1H-indole-6-carboxamide]	0.171 µM
Cc1c(-c2ccccc2Cl)c2ccc(C(=O)NC3(C)CCS(=O)(=O)C3)cc2n1-c1ccc(F)cc1 (single isomer, unassigned; enantiomer a) [Example 8-A, 3-(2-chlorophenyl)-1-(4-fluorophenyl)-2-methyl-N-(3-methyl-1,1-dioxidotetrahydrothiophen-3-yl)-1H-indole-6-carboxamide (Enantiomer A)]	0.934 µM

Now those with a lower IC50, led by results:

IC50	SMILES
0.055 µM	O=C(NC1CCS(=O)(=O)C1)c1ccc2c(-c3ccccc3)cn(-c3ccc(F)cc3)c2c1 (racemic) [Example 43, N-(1,1-dioxidotetrahydrothiophen-3-yl)-1-(4-fluorophenyl)-3-phenyl-1H-indole-6-carboxamide (racemic)]
0.019 µM	O=C(NC1CCS(=O)(=O)C1)c1ccc2c(-c3cccc(Cl)c3Cl)cn(-c3ccc(F)cc3)c2c1 (racemic) [Example 44, 3-(2,3-dichlorophenyl)-N-(1,1-dioxidotetrahydrothiophen-3-yl)-1-(4-fluorophenyl)-1H-indole-6-carboxamide (racemic)]
0.013 µM	N#Cc1cccc(-c2cn(-c3ccc(F)cc3)c3cc(C(=O)NC4CCS(=O)(=O)C4)ccc23)c1 (racemic) [Example 45, 3-(3-cyanophenyl)-N-(1,1-dioxidotetrahydrothiophen-3-yl)-1-(4-fluorophenyl)-1H-indole-6-carboxamide (racemic)]
0.0021 µM	O=C(NC1CCS(=O)(=O)C1)c1ccc2c(-c3cccc(C4CC4)c3)cn(-c3ccc(F)cc3)c2c1 (racemic) [Example 46, 3-(3-cyclopropylphenyl)-N-(1,1-dioxidotetrahydrothiophen-3-yl)-1-(4-fluorophenyl)-1H-indole-6-carboxamide (racemic)]
0.053 µM	O=C(NC1CCS(=O)(=O)C1)c1ccc2c(-c3c(F)cccc3F)cn(-c3ccc(F)cc3)c2c1 (racemic) [Example 48, 3-(2,6-difluorophenyl)-N-(1,1-dioxidotetrahydrothiophen-3-yl)-1-(4-fluorophenyl)-1H-indole-6-carboxamide (racemic)]
0.014 µM	O=C(NC1CCS(=O)(=O)C1)c1ccc2c(-c3cccc(OC(F)(F)F)c3)cn(-c3ccc(F)cc3)c2c1 (racemic) [Example 58, N-(1,1-dioxidotetrahydrothiophen-3-yl)-1-(4-fluorophenyl)-3-[3-(trifluoromethoxy)phenyl]-1H-indole-6-carboxamide (racemic)]
0.03 µM	O=C(NC1CCS(=O)(=O)C1)c1ccc2c(-c3ccccc3Cl)cn(-c3ccc(F)cc3)c2c1 (single isomer, unassigned) [Example 2-B, 3-(2-chlorophenyl)-N-(1,1-dioxidotetrahydrothiophen-3-yl)-1-(4-fluorophenyl)-1H-indole-6-carboxamide]
0.0056 µM	CC1(NC(=O)c2ccc3c(-c4ccccc4Cl)cn(-c4ccc(F)cc4)c3c2)CCS(=O)(=O)C1 (single isomer, unassigned; enantiomer a) [Example 1-A, 3-(2-chlorophenyl)-1-(4-fluorophenyl)-N-(3-methyl-1,1-dioxidotetrahydrothiophen-3-yl)-1H-indole-6-carboxamide (Enantiomer A, fast)]
